Measured values published in patent US10745414B2, “Crystal salt form of 2,2-dimethyl-6-((4-((3,4,5-trimethoxyphenyl)amino)-1,3,5-triazine-2-yl)amino)-2H-pyrido[3,2-b][1,4]oxazine-3(4H)-one for human use” (LIMITED “MOLECULAR TECHNOLOGIES”, priority 2016, dated 2020).

Tests used:
[1] = pharmacokinetics in blood plasma after oral administration in Wistar rats; conditions: Wistar, rat, in vivo, po, 30 mg/kg
Description: At the first stage, pharmacokinetics of the Compound 1 free base was studied after oral administration in Wistar rats at dosage of 30 mg/kg.
Pharmacokinetics of several Compound 1 salt forms was studied after oral administration in Wistar rats at a dose of 37 mg/kg (30 mg/kg equivalent to a free base).

[2] = target: human recombinant tyrosine c-Src kinase (Homo sapiens, UniProt P12931); assay: human kinase enzymatic activity in vitro (33P-ATP, peptide substrate); format: biochemical
Description: (§1) The Compound 1 effect on the human recombinant tyrosine c-Src kinase was measured as follows: a peptide substrate was dissolved in a reaction buffer ad 0.2 mg/ml concentration. A solution of recombinant c-Src kinase was added to 2 nM concentration and the studied compound to the required concentration (within the range of 1 nM to 10 μM) was added. A solution of ^33P-ATP was added to 10 μM concentration (final specific activity of the solution is 0.01 μCi). After 120 minutes of incubation, the reaction mixture was applied on ion-exchange paper, which was rinsed with a plenty of phosphoric acid. A reaction extent was determined based on radioactivity of the reaction products.

[3] = solubility of the primary base in selected organic solvents; format: physicochemical; conditions: organic solvent or mixture, thermodynamic from solid
Description: At the first stage solubility of the primary base in the selected organic solvents was studied. Maximum volume of a solvent for this study was selected as 10 ml per 100 mg of the base taking into consideration the subsequent process scaling.

[4] = system: mature human osteoclasts; assay: osteoclast-mediated resorption of mineralized matrix; format: cell-based
Description: The study was carried out following the method below: CD15+ monocytes (osteoclast precursor cells) were cultivated for 3 days in a proliferation medium (Igla α-modified minimum essential medium/fetal calf serum (aMEM/FCS), 10% with 25 ng/ml of macrophage colony-stimulating factor (M-CSF)). During this stage M-CSF promoted proliferation and expression of a receptor activator of nuclear factor KB (RANK, cappa-B, type I membrane protein). The proliferation medium was removed and cells were differentiated in a differentiation medium (aMEM/FCS-10% with 100 ng/ml of RANKL and 25 ng/ml of M-CSF). When mature osteoclasts were detected in the culture (day 4 of the study), the cells were collected and re-inoculated into a 96-well plate coated with a synthetic mineralized matrix. Cultivation continued for 48 hours (at presence of the studied compounds) to evaluate osteoclast resorption. Then number of mature osteoclasts and the resorption degree were evaluated. An effect of 4-methylbenzenesulfonic acid and Compound 1 salt concentration on concentration and resorption degree of mature osteoclasts was evaluated in comparison with control samples ([…] control, 0.3% DMSO solvent) and reference inhibitors, i.e., saracatinib and bosutinib (see FIG. 18).

[5] = pKa of protonated pyridine nitrogen; format: physicochemical; conditions: protonated nitrogen atom of pyridine
Source text: To obtain a form having optimal biological and physical properties, various salt forms of the Compound 1 was synthesized. A primary goal of the salt form optimization was to obtain a Compound 1 salt form having the following properties: crystallinity, composition stability, therapeutic efficacy, safety, ease of production process scalability, using a pharmacologically acceptable counterion (preferably anion), and using low toxicity organic solvents. The salt forms of Compound 1 were obtained with organic solutions of high polarity and low toxicity (Class 3). The counterions were used based on pharmacological acceptance and high acid strength (pKa not exceeding 3.25). The requirement for the high acid strength is conditioned by the fact that a protonated nitrogen atom of pyridine of the Compound 1 is a weak base having pKa 4.

[6] = system: Sprague-Dawley rat models of osteoarthritis induced by intra-articular introduction of sodium iodoacetate; assay: mechanical allodynia test with von Frey filaments in osteoarthritis induced by sodium iodoacetate; format: in vivo
Description: The intra-articular introduction of aerobic glycolysis inhibitor (sodium iodoacetate) results in death of chondrocytes and acute inflammatory reaction in a synovial cavity. In absence of treatment, at day 10 from the pathology induction an onset of chronic pain is observed due to cartilage destruction and development of chronic inflammation in particular cases [J Musculoskel Neuron Interact 2001; 1(4):363-376]. Extent of osteoarthritis development in rats was evaluated by comparison of extremity pain sensitivity threshold after the introduction of sodium iodoacetate versus background measurements taken before the pathology induction. The threshold of the pain sensitivity was evaluated by mechanical allodynia test using von Frey filaments (see Table 8).
For the purposes of the study, rat males weighing 150 to 200 g were selected. All the animals underwent acclimatization for 14 days. The animals were housed in a polycarbonate cages of 3H type manufactured by Charles River laboratories Inc according to COST R 53434-2009. 12-hours lighting regimen was maintained. The animals had access to food and water ad libitum. The pathology was induced by introduction of 50 μl solution containing 2 mg of sodium iodoacetate into a synovial cavity of the animal knee joints. Tactile allodynia induced by a mechanical irritation was evaluated using von Frey filaments weighing 0.06 to 23.96 g. The test was repeated five times for each filament at intervals of 1 to 2 s. The sensitivity threshold was considered as a minimum reaction threshold provoking paw withdrawal in one of five repeats.

[7] = pharmacokinetics in blood plasma after oral administration in Wistar rats; conditions: rat, in vivo, 21 mg/kg
[8] = system: chondrocytes from knee joint cartilage of young rats; assay: IL-1β-induced hypertrophic changes in chondrocytes (aggrecan expression); format: cell-based, rats (Sprague Dawley)
Description: The study was carried out following the method below: chondrocytes were isolated from a knee joint cartilage of young rats (aged 3 weeks, Sprague Dawley line). The isolated chondrocytes in a cultural medium (Dulbecco's modified Igla minimum essential medium/fetal calf serum (DMEM/FCS), 10%, 4-(2-hydroxyethyl)-1-piperazine ethanesulfonic acid (HEPES), 25 mM) was stored frozen at −80° C. The obtained chondrocytes were unfrozen a day before the experiment, inoculated into 12-well plates and cultured as a monolayer during 24 hours. After 24 hours of incubation IL-1β-induced activation of chondrocytes and treatment with the studied compounds was started and continued for 3 days.

[9] = target: Lyn (Homo sapiens, UniProt P07948); assay: human kinase enzymatic activity in vitro; format: biochemical; conditions: 0.5 μmol/l
[10] = target: Fyn (Homo sapiens, UniProt P06241); assay: human kinase enzymatic activity in vitro; format: biochemical; conditions: 0.5 μmol/l
[11] = target: Fgr (Homo sapiens, UniProt P09769); assay: human kinase enzymatic activity in vitro; format: biochemical; conditions: 0.5 μmol/l
[12] = target: Lck (Homo sapiens, UniProt P06239); assay: human kinase enzymatic activity in vitro; format: biochemical; conditions: 0.5 μmol/l
[13] = target: Yes (Homo sapiens, UniProt P07947); assay: human kinase enzymatic activity in vitro; format: biochemical; conditions: 0.5 μmol/l
[14] = system: Src-kinase family; assay: human kinase enzymatic activity in vitro; format: biochemical; conditions: 0.5 μmol/l
Description: as §1

[15] = target: Hck (Homo sapiens, UniProt P08631); assay: human kinase enzymatic activity in vitro; format: biochemical; conditions: 0.5 μmol/l
[16] = target: Frk (Homo sapiens, UniProt P42685); assay: human kinase enzymatic activity in vitro; format: biochemical; conditions: 0.5 μmol/l
[17] = target: Blk (Homo sapiens, UniProt P51451); assay: human kinase enzymatic activity in vitro; format: biochemical; conditions: 0.5 μmol/l
[18] = target: Syk kinase (Homo sapiens, UniProt P43405); assay: human kinase enzymatic activity in vitro; format: biochemical
[19] = further clinical trials, daily exposure of a therapeutically effective dose; cited from earlier work

Chain of human recombinant tyrosine c-Src kinase (P12931 whole entry): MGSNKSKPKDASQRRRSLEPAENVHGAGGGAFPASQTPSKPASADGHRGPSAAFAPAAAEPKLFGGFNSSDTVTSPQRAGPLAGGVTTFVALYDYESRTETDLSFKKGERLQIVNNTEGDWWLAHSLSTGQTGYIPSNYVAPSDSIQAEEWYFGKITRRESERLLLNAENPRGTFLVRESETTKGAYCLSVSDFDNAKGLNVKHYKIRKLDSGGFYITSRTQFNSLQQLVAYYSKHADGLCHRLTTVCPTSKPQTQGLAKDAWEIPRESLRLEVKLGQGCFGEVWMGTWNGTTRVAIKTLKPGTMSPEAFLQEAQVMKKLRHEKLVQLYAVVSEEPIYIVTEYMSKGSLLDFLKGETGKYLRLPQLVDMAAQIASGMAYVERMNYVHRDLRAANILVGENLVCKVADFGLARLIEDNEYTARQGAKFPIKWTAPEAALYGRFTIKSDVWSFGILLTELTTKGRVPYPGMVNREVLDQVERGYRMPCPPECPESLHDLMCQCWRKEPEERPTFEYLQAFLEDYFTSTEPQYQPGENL
Chain of Lyn (P07948 whole entry): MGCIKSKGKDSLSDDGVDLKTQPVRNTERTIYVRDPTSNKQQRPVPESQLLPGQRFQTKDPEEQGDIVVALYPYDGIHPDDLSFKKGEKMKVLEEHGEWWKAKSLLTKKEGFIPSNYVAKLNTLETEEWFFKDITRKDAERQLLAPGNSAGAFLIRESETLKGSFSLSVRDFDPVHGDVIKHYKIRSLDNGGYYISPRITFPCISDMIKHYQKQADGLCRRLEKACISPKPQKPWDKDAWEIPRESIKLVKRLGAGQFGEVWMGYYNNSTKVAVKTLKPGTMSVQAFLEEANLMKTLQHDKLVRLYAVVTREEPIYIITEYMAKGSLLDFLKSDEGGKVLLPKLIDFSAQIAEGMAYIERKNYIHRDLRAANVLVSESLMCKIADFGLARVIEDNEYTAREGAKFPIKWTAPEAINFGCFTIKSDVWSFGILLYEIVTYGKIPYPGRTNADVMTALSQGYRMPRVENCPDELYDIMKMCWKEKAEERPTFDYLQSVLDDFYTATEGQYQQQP
Chain of Lck (P06239 whole entry): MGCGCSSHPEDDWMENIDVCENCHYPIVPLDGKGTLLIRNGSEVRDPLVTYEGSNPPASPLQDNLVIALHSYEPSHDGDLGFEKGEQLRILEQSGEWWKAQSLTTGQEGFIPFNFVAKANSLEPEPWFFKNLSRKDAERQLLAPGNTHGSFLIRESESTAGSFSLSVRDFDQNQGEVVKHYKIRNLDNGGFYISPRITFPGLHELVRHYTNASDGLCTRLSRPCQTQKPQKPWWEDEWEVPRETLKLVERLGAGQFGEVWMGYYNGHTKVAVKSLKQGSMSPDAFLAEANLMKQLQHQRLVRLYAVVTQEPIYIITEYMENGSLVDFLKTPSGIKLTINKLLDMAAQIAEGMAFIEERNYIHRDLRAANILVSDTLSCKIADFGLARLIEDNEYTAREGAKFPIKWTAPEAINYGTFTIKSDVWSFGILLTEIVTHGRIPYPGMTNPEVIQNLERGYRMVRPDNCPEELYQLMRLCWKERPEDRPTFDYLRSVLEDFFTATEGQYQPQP
Chain of Hck (P08631 whole entry): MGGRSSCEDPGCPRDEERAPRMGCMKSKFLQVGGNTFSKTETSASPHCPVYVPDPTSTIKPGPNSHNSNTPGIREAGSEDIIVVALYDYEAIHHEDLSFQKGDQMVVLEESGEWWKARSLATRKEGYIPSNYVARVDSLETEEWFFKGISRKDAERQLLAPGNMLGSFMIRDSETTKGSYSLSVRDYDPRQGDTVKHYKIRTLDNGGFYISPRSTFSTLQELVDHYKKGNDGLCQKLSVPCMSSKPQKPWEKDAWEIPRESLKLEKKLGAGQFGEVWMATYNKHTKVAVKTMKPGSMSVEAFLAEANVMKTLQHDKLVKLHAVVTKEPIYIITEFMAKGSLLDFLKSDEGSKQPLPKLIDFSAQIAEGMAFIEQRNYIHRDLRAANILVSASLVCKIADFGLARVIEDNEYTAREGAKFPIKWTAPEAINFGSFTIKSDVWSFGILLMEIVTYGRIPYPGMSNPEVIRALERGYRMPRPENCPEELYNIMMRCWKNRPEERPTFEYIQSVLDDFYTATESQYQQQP
Chain of Yes (P07947 whole entry): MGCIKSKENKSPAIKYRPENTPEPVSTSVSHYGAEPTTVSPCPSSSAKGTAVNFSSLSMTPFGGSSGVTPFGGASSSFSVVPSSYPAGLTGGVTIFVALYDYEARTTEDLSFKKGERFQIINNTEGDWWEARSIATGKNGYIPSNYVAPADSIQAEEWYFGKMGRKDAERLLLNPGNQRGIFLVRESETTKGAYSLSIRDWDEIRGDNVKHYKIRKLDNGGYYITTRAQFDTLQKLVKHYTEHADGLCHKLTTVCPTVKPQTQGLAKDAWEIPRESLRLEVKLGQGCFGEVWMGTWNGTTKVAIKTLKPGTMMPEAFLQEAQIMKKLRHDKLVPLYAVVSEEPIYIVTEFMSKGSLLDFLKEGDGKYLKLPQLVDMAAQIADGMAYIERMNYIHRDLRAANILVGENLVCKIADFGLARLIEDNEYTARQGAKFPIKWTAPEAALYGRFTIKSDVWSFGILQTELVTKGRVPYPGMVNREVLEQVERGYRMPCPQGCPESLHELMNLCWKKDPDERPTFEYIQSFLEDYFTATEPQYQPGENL
Chain of Fyn (P06241 whole entry): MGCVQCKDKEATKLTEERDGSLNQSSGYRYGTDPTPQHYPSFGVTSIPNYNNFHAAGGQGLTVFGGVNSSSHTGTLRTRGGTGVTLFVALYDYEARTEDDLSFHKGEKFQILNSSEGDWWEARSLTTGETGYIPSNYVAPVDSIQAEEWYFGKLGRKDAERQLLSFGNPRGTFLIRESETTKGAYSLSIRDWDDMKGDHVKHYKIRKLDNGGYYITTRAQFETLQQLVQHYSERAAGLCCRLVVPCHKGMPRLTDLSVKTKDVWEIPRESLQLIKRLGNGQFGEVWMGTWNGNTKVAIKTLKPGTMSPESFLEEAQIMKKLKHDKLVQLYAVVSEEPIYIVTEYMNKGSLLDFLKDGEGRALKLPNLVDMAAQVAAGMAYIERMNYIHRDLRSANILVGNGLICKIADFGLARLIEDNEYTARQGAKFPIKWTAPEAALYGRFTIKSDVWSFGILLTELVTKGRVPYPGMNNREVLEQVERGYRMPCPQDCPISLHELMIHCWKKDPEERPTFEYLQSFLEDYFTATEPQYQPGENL
Chain of Blk (P51451 whole entry): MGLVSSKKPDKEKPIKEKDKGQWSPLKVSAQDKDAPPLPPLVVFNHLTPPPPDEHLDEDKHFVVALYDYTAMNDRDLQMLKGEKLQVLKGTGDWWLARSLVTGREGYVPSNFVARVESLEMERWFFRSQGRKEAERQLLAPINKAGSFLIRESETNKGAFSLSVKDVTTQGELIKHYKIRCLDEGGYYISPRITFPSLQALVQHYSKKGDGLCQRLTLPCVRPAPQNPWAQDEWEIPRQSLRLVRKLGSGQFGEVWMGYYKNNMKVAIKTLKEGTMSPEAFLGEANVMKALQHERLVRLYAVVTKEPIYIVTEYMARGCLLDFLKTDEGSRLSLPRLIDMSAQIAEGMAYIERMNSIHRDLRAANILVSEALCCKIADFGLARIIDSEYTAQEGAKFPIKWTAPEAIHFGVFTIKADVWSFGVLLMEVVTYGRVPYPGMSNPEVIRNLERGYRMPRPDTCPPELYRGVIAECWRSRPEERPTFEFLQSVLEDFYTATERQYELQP
Chain of Fgr (P09769 whole entry): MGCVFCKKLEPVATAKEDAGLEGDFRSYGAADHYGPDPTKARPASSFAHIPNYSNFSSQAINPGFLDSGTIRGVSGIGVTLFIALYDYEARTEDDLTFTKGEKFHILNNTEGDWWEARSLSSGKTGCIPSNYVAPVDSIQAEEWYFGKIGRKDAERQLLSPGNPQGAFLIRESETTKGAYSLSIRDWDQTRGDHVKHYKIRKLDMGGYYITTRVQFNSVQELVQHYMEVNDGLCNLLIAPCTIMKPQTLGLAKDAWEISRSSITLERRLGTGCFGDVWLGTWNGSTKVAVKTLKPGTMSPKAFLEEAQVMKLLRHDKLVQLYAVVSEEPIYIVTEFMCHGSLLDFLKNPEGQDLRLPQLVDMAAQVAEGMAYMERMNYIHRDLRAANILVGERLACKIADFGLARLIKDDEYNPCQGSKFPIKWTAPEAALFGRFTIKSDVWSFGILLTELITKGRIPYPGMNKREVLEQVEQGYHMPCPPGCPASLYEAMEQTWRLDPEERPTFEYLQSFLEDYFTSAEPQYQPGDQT
Chain of Frk (P42685 whole entry): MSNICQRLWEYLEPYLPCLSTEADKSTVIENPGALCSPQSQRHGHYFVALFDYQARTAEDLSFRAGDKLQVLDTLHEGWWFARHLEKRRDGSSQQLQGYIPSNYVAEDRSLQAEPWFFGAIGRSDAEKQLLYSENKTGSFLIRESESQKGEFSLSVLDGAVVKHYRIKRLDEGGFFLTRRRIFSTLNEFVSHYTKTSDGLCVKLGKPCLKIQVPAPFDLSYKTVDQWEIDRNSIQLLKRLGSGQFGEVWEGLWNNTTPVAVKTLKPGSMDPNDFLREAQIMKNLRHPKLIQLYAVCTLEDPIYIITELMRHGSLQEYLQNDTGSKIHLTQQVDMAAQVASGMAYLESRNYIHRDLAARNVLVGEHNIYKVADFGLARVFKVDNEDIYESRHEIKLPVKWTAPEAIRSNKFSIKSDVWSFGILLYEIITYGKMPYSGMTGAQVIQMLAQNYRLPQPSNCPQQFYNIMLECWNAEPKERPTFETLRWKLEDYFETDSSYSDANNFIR

## COc1cc(Nc2ncnc(Nc3ccc4c(n3)NC(=O)C(C)(C)O4)n2)cc(OC)c1OC [Compound 1, 2,2-dimethyl-6-((4-((3,4,5-trimethoxyphenyl)amino)-1,3,5-triazine-2-yl)amino)-2H-pyrido[3,2-b][1,4]oxazine-3(4H)-one]
[1]
  AUC0-t: 55 ng·h/mL
  AUC(0-inf): 73 ng·h/mL
  Cmax: 4.12 ng/mL
  Tmax: 4 h
  Vz(/F): 6,982.6 l/kg
  average daily concentration of the substance: 4.8 nmol/L
  half-life: 11.8 h
  maximum concentration of the substance in plasma: 9.1 nmol/L
  maximum plasma concentration relative to minimum effective concentration: 100 times lower
[2]; human c-Src kinase
  half-maximal inhibitory concentration: within a nanomolar range
[3]; 1,4-Dioxane, 106 mg base in 7 ml, 100 °C (code S-1-4-D)
  solubility: > 10000 µg/mL
[3]; Acetone, 97 mg base in 10 ml, 56 °C (code S-1-5-A1)
  solubility: < 10000 µg/mL
[3]; Ethanol, 98 mg base in 10 ml, 78 °C (code S-1-2-C2)
  solubility: < 10000 µg/mL
[3]; THF, 103 mg base in 10 ml, 66 °C (code S-1-3-T)
  solubility: < 10000 µg/mL
[3]; n-Butanol, 101 mg base in 10 ml, 117 °C (code S-1-1-B)
  solubility: < 10000 µg/mL
[4]; 48 hours cultivation
  effect on osteoclast-mediated resorption of the mineralized matrix: dose-dependent inhibitory effect
[4]; studies of Compound 1 biological activity
  effective concentration: about 1 μmol/l
[5]
  pKa: 4

## COc1ccc2cc([C@H](C)C(=O)O)ccc2c1 [Naproxen, reference compound]
[6]; 50 mg/kg intragastric, days 14, 21, 28, day 14
  Reaction threshold value, % of control: 82 % of control
[6]; 50 mg/kg intragastric, days 14, 21, 28, day 21
  Reaction threshold value, % of control: 102 % of control
[6]; 50 mg/kg intragastric, days 14, 21, 28, day 28
  Reaction threshold value, % of control: 96 % of control

## O=P(O)(O)C(O)(Cn1ccnc1)P(=O)(O)O [Zoledronic acid, reference compound]
[6]; 0.1 mg/kg subcutaneously, days 0, 3, 6, 9, 12, 15, 18, 21, 24, 27, day 14
  Reaction threshold value, % of control: 98 % of control
[6]; 0.1 mg/kg subcutaneously, days 0, 3, 6, 9, 12, 15, 18, 21, 24, 27, day 21
  Reaction threshold value, % of control: 108 % of control
[6]; 0.1 mg/kg subcutaneously, days 0, 3, 6, 9, 12, 15, 18, 21, 24, 27, day 28
  Reaction threshold value, % of control: 118 % of control

## COc1cc(Nc2ncnc(Nc3ccc4c(n3)NC(=O)C(C)(C)O4)n2)cc(OC)c1OC.Cc1ccc(S(=O)(=O)O)cc1.O [salt monohydrate of 4-methylbenzenesulfonic acid and 2,2-dimethyl-6-((4-((3,4,5-trimethoxyphenyl)amino)-1,3,5-triazine-2-yl)amino)-2H-pyrido[3,2-1,4]oxazine-3(4H)-one Base (Polymorphic Modification B)]
[4]; concentrations from 1.0 μM
  effect on osteoclast-mediated resorption of the mineralized matrix: statistically significant dose-dependent inhibitory effect

## COc1cc(Nc2ncnc(Nc3ccc4c(n3)NC(=O)C(C)(C)O4)n2)cc(OC)c1OC.Cc1ccc(S(=O)(=O)O)cc1.O [salt monohydrate of 4-methylbenzenesulfonic acid and 2,2-dimethyl-6-((4-((3,4,5-trimethoxyphenyl)amino)-1,3,5-triazine-2-yl)amino)-2H-pyrido[3,2-b][1,4]oxazine-3(4H)-one Base (Polymorphic Modification A)]
[7]
  AUC0-t: 2,339 ng · h/ml
  AUC0-∞: 2,418 ng · h/ml
  T1/2: 5.0 h
  Tmax: 1.5 h
[8]; treatment for 3 days
  effect on IL-1β-induced hypertrophic changes in chondrocytes (increase in aggrecan expression): statistically significant positive effect

## COc1cc(Nc2ncnc(Nc3ccc4c(n3)NC(=O)C(C)(C)O4)n2)cc(OC)c1OC.Cc1ccc(S(=O)(=O)O)cc1 [salt of 4-methylbenzenesulfonic acid and 2,2-dimethyl-6-((4-((3,4,5-trimethoxyphenyl)amino)-1,3,5-triazine-2-yl)amino)-2H-pyrido[3,2-b][1,4]oxazine-3(4H)-one base]
[9]
  inhibition at 0.5 µM: > 50%
[9]; read-out: residual activity
  remaining activity at 0.5 µM: 13%
[10]
  inhibition at 0.5 µM: > 50%
[10]; read-out: residual activity
  remaining activity at 0.5 µM: 25%
[11]
  inhibition at 0.5 µM: > 50%
[11]; read-out: residual activity
  remaining activity at 0.5 µM: 23%
[12]
  inhibition at 0.5 µM: > 50%
[12]; read-out: residual activity
  remaining activity at 0.5 µM: 12%
[13]
  inhibition at 0.5 µM: > 50%
[13]; read-out: residual activity
  remaining activity at 0.5 µM: 12%
[14]
  residual Src-kinase family activity: ≤ 25 % of control values
[15]
  inhibition at 0.5 µM: > 50%
[15]; read-out: residual activity
  remaining activity at 0.5 µM: 25%
[2]
  IC50: 14 nM
[2]; 0.5 μmol/l
  inhibition at 0.5 µM: > 50%
[2]; 0.5 μmol/l, read-out: residual activity
  remaining activity at 0.5 µM: 6%
[16]
  inhibition at 0.5 µM: > 50%
[17]
  inhibition at 0.5 µM: > 50%
[17]; read-out: residual activity
  remaining activity at 0.5 µM: 20%
[18]
  IC50: 40 nM
[18]; 0.5 μmol/l
  inhibition at 0.5 µM: > 50%
[8]; induced hypertrophic changes in chondrocytes
  increase of aggrecan production: more than four-time increase

## CN1CCN(CCOc2cc(OC3CCOCC3)c3c(Nc4c(Cl)ccc5c4OCO5)ncnc3c2)CC1 [saracatinib]
[19]
  toxicity: high toxicity
